We go through eight molecules from ChEMBL document CHEMBL1139510, “Early absorption and distribution analysis of antitumor and anti-AIDS drugs: lipid membrane and plasma protein interactions” (J Med Chem, 2005).

Holding throughout (format): ADME
Data set [1] concerns the target T1, Albumin (Homo sapiens, UniProt P02768). Nature of the data set: Equilibrium dissociation constant for the interaction between the compound and serum albumin.
Data set [2] deals with T1, Albumin. The data set is described as follows: Dissociation rate constant for the interaction between the compound and serum albumin.
Data set [3] deals with T1, Albumin. The data set is described as follows: Association rate constant for the interaction between the compound and serum albumin.

T1 sequence (P02768 whole entry): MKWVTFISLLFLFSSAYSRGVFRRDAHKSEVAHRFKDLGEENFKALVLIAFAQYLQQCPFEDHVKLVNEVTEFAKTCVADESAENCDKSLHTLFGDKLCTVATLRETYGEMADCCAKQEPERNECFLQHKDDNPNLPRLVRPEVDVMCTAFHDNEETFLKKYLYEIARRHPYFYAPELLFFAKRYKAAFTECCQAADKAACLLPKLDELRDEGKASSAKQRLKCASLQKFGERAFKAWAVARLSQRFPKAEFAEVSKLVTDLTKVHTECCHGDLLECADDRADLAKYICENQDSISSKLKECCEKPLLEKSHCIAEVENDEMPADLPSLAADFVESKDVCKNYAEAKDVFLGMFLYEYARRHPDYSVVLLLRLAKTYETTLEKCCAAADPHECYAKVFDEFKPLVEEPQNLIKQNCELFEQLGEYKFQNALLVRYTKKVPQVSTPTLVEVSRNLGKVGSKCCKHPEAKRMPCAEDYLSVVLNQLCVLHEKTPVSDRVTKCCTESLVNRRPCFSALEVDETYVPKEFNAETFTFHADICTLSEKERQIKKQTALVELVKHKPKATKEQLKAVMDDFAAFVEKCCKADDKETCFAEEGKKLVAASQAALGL

For `CC(C)(C)NC(=O)[C@@H]1C[C@@H]2CCCC[C@@H]2CN1C[C@@H](O)[C@H](Cc1ccccc1)NC(=O)[C@H](CC(N)=O)NC(=O)c1ccc2ccccc2n1`, the Kd is 34 µM on Albumin [1] (read-out: KD1) and 301 µM at Albumin [1] (read-out: KD2). The molecule further displayed a Koff1 on Albumin [2] of 0.856 s⁻¹. On Albumin [2], this molecule displayed a Koff2 of 0.085 s⁻¹. In addition, the kon is 25000 M⁻¹ s⁻¹ on Albumin [3] (read-out: Kon1) and 282 M⁻¹ s⁻¹ on Albumin [3] (read-out: Kon2).
As to `CC(C)CN(C[C@@H](O)[C@H](Cc1ccccc1)NC(=O)O[C@H]1CCOC1)S(=O)(=O)c1ccc(N)cc1`, the figures for the Kd on Albumin [1] (read-out: KD1) and at Albumin [1] (read-out: KD2) were 124 µM and 328 µM, respectively. Further, the Koff1 at Albumin [2] worked out at 2.75 s⁻¹. In addition, the Koff2 at Albumin [2] was determined as 0.068 s⁻¹. Also, the kon on Albumin [3] (read-out: Kon1) came to 22100 M⁻¹ s⁻¹; on Albumin [3] (read-out: Kon2), 208 M⁻¹ s⁻¹.
Regarding `CC(=O)O[C@@]1(C2/C(C)=C(/O)C(=O)C3=C(C)[C@@H](OC(=O)[C@H](O)[C@H](CC(C)C)NC(=O)OC(C)(C)C)C[C@@](O)([C@H]2OC(=O)c2ccccc2)C3(C)C)CO[C@@H]1CCO` (stereo partly specified), the results for the Kd on Albumin [1] (read-out: KD1) and on Albumin [1] (read-out: KD2) were 319 µM and 1820 µM, respectively. The same molecule gave a Koff1 at Albumin [2] of 1.875 s⁻¹. The same molecule registered a Koff2 on Albumin [2] of 0.045 s⁻¹. Besides, the kon is 5900 M⁻¹ s⁻¹ at Albumin [3] (read-out: Kon1) and 33.1 M⁻¹ s⁻¹ on Albumin [3] (read-out: Kon2).
Consider `CC(=O)O[C@H]1C(=O)[C@@]2(C)C([C@H](OC(=O)c3ccccc3)[C@]3(O)C[C@H](OC(=O)[C@H](O)[C@@H](NC(=O)c4ccccc4)c4ccccc4)C(C)=C1C3(C)C)[C@]1(OC(C)=O)CO[C@@H]1C[C@@H]2OC(=O)CCC(=O)O` (stereo partly specified), for which the Kd worked out at 192 µM at Albumin [1] (read-out: KD1) and 1170 µM on Albumin [1] (read-out: KD2). Further, the Koff1 on Albumin [2] amounted to 1.183 s⁻¹. Besides, the Koff2 on Albumin [2] was determined as 0.033 s⁻¹. In addition, the kon at Albumin [3] (read-out: Kon1) is 7300 M⁻¹ s⁻¹; on Albumin [3] (read-out: Kon2), 36.4 M⁻¹ s⁻¹.
In the case of `Cc1c(O)cccc1C(=O)N[C@@H](CSc1ccccc1)[C@H](O)CN1C[C@H]2CCCC[C@H]2C[C@H]1C(=O)NC(C)(C)C`, the Kd worked out at 230 µM on Albumin [1] (read-out: KD1) and 6 µM on Albumin [1] (read-out: KD2). At Albumin [2], the Koff1 turned out to be 0.413 s⁻¹. For the same molecule, the results for the kon on Albumin [3] (read-out: Kon1) and on Albumin [3] (read-out: Kon2) were 1800 M⁻¹ s⁻¹ and 12.6 M⁻¹ s⁻¹, respectively.
On to `COC(=O)N[C@H](C(=O)N[C@@H](Cc1ccccc1)[C@@H](O)CN(Cc1ccc(-c2ccccn2)cc1)NC(=O)[C@@H](NC(=O)OC)C(C)(C)C)C(C)(C)C` [ATAZANAVIR], for which the Kd worked out at 149 µM on Albumin [1] (read-out: KD1) and 599 µM at Albumin [1] (read-out: KD2). The molecule also had a Koff1 at Albumin [2] of 1.43 s⁻¹. Further, at Albumin [2], the Koff2 came to 0.025 s⁻¹. Besides, the kon turned out to be 9600 M⁻¹ s⁻¹ on Albumin [3] (read-out: Kon1) and 41.8 M⁻¹ s⁻¹ on Albumin [3] (read-out: Kon2).
Take `CC(=O)O[C@@]12CO[C@@H]1C[C@H](O)[C@@]1(C)C(=O)[C@H](O)C3=C(C)[C@@H](OC(=O)[C@H](O)[C@@H](NC(=O)OC(C)(C)C)c4ccccc4)C[C@@](O)([C@@H](OC(=O)c4ccccc4)[C@H]21)C3(C)C.O.O.O` [DOCETAXEL]: the Kd on Albumin [1] (read-out: KD1) was 199 µM; at Albumin [1] (read-out: KD2), 2110 µM. The same molecule displayed a Koff1 at Albumin [2] of 1.505 s⁻¹. The same molecule returned a Koff2 on Albumin [2] of 0.069 s⁻¹. Further, the kon at Albumin [3] (read-out: Kon1) stood at 7700 M⁻¹ s⁻¹; at Albumin [3] (read-out: Kon2), 43.7 M⁻¹ s⁻¹.
As to `Cc1cccc(C)c1OCC(=O)N[C@@H](Cc1ccccc1)[C@@H](O)C[C@H](Cc1ccccc1)NC(=O)[C@H](C(C)C)N1CCCNC1=O` [LOPINAVIR], the Kd was 24 µM at Albumin [1] (read-out: KD1) and 6 µM on Albumin [1] (read-out: KD2). This molecule came in with a Koff1 on Albumin [2] of 0.619 s⁻¹. For the same molecule, the kon at Albumin [3] (read-out: Kon1) came out at 25900 M⁻¹ s⁻¹; on Albumin [3] (read-out: Kon2), 10.1 M⁻¹ s⁻¹.
